Our source for the melting point values is a melting point compilation (Tetko et al.; mined from patent text by program, amines drawn as free bases though some values may be those of a salt).

A word on the melting point: it is the temperature, or range, at which the solid turns liquid. The compound `CCOC(=O)c1c(Nc2cccc3ccccc23)n[nH]c1C` returned a melting point of 199 to 202 °C.
As for `COc1cccc(OCC(N)=O)c1-c1c(C#N)c2ccccn2c1Nc1c(C)cccc1C`, the melting point was in the range of 227 to 229 °C.
The figure for `COc1cc(NC(=O)Nc2ccccc2C)cc(OC)c1-c1ccc(C[C@H](NC(=O)c2c(Cl)cccc2Cl)C(=O)O)cc1` is 194 to 195 °C.
As for `O=C(O)c1nccc(Cl)c1O`, the figure is 228 °C; as for `Cn1cc(CS(C)(=O)=O)c(=O)c2ccc(C(F)(F)F)cc21`, 240 to 242 °C.
The figure for `c1ccc(-c2csc(Nc3cc4ccccc4cn3)n2)cc1` is 265 to 267 °C; for `Cc1c([N+](=O)[O-])ccc2c1SC1(Cl)C=C(C(F)(F)F)C=C(Cl)C1O2` (stereo not given) it is 135 °C.
Regarding `CC(C)(C=C(Cl)Cl)C(=O)Nc1ccc(Cl)cc1`, the melting point fell in the range of 131 to 134 °C.
The figure for `COc1cc(C(=O)NS(=O)(=O)c2ccccc2C)ccc1Cc1c(Cl)n(C)c2ccc(CCNC(=O)N(C)C)cc12` is 222 to 224 °C.
Turning to `OCC(O)COc1cc(-c2cccc(Cl)c2)on1` (stereo not given), the melting point lay within 92 to 93 °C.
Consider `CC(C)(C)c1cc(-c2nc(CS(C)(=O)=O)no2)cc(C(C)(C)C)c1O`, for which the melting point lay within 153 to 155 °C.
The figure for `Cc1ccc(NC(=O)N[C@]2(C3CCCCC3)N=Cc3ccccc3N(C)C2=O)cc1N(C)c1nnn[nH]1` is 223 to 225 °C; for `COc1cccc(Oc2c(NS(=O)(=O)c3ccc(C(C)(C)C)cc3)ncnc2OCCOc2ncc(Br)cn2)c1` it is 168 °C.
The figure for `CCOC(=O)/C=C1\CCOc2ccc(N)cc21` is 97 °C; for `O=[N+]([O-])c1ccccc1-c1ccc(Br)cc1[N+](=O)[O-]` it is 145 to 147 °C; for `O=C(c1ccccc1)c1cccnc1-c1nc(NCc2ccc(Cl)cc2)c2ccccc2n1` it is 147 to 149 °C.
The figure for `COc1ccc(N2CCN(c3c(C)c(C)c4c(c3C)C(O)C(C)(C)O4)CC2)cc1OC` (stereo not given) is 150 to 151 °C; for `COc1ccc(CNC(=O)c2[nH]c3ccc(Cl)cc3c2S(=O)(=O)c2ccccc2)cc1` it is 205 to 206 °C; for `CC(C)n1nc(C(Cl)C(=O)c2cccc(F)c2)ccc1=O` (stereo not given) it is 65.5 to 66.5 °C.
`CCCCN(CCCOc1ccc2ccccc2c1)c1ccc(OC)cc1` had a melting point of 127 °C.
In turn, `O=C1c2ccccc2C(=O)c2c1cccc2N1CCNCC1` came in with a melting point of 190 °C.
As for `Cc1nc(N)nc(OCc2ccccc2)c1[N+](=O)[O-]`, the figure is 159 to 160 °C; as for `COc1cc(OCC(=O)O)cc2c1C(Cl)=CC1(CCCCC1)O2`, 132 to 133 °C.
As for `Cc1nc(NC(=O)c2ccccc2)sc1C(=O)NCc1cccc(F)c1`, the figure is 216 to 217 °C.
The figure for `Cc1c(C)c(N2CCN(c3ccc(F)cc3)CC2)c(C)c2c1OC(C)C2` (stereo not given) is 137 to 138 °C; for `CC(C)n1nc(-c2c(OC3CCOCC3)nc(N)nc2-c2ccccc2)ccc1=O` it is 207 to 209 °C.
Regarding `Cc1ccc2ccccc2c1Nc1ccccc1C(=O)O`, the melting point lay within 215 to 216 °C.
The figure for `CCn1cc(C(=O)O)c(=O)c2ccc(I)cc21` is 237 to 238 °C; for `Cc1c(N(C)C)c(F)cc2c(=O)[nH]c(=O)n(C3CC3)c12` it is 238 to 239 °C.
The figure for `CCCCCCCCCc1nnc(C2=C(OC(C)=O)c3ccccc3S(=O)(=O)N2C)o1` is 118 to 119 °C.
The figure for `O=C(CCCCCl)c1ccc2c(c1)Cc1cc(C(=O)CCCCCl)ccc1-2` is 124 to 125 °C.
`Cc1[nH]c(=O)c(C#N)cc1-c1csc(N)n1` yielded a melting point of 294 to 296 °C.
`COC(=O)CCc1cnoc1-c1ccc(Br)cc1` came in with a melting point of 58 to 59 °C.
Compound `CC(=O)n1cc(C#N)c(-c2cccc(Cl)c2F)c1` showed a melting point of 141 to 142 °C.
The figure for `O=C1C(CCO)Oc2ccccc2N1Cc1cccc(Cl)c1` (stereo not given) is 63 to 67 °C.
